# Target: T1, trypsin (UniProt P00760)
# T1 construct: Trypsin (6000 E/mg prot; Sigma): dissolved in distilled water to give a stock solution of 300 E/mL
# T1 sequence (P00760 1-246): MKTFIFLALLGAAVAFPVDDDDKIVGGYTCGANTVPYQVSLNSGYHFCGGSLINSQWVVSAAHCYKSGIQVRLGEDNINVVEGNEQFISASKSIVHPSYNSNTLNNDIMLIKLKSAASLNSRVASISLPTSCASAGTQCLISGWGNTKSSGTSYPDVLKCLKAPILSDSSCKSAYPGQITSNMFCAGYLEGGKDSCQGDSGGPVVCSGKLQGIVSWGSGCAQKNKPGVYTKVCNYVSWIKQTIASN
# Experiment: Determination of trypsin Ki (chromogenic substrate S-2222)
# Assay type: biochemical
# Conditions: substrate S-2222, pH 7.5, 25° C.
# Description: The enzyme inhibitory effect of the compounds can be identified by determination of inhibition constant Ki. It denotes the degree of dissociation of the enzyme-inhibitor complex. Low dissociation constant means high potency of inhibitor. Ki can be determined during reaction of the enzyme with a specific chromogenic substrate which under hydrolysis by the enzyme develops color. Reaction in time is recorded by spectrophotometry and Ki is calculated from kinetic parameters (Vmax, Km, reaction rate).
# 2. Determination of Trypsin Ki
# The ability of a compound to act as an inhibitor of trypsin catalytic activity was assessed by determination of Ki.
# Buffer: HBSA, pH 7.5 (10 mM Hepes, 150 mM NaCl, 0.1% w/v bovine serum albumin)
# Substrate (S-2222: N-benzoyl-Ile-Glu-Gly-Arg-pNA HCl, 25 mg; Chromogenix): dissolved in distilled water to 2 mM concentration. (Km is 21 μM)
# Trypsin (6000 E/mg prot.; Sigma): dissolved in distilled water to give a stock solution of 300 E/mL.
# Inhibitors: were dissolved in DMSO (10 mM stock solution) and diluted with distilled water to working solution (the highest final concentration of DMSO was 10%).
# 50 μL of buffer, 50 μL of test compound in water (final concentrations from 50 to 300 μM) and 50 μL of trypsin (3 mE/mL f.c.) were incubated for 15 minutes at room temperature. The reaction was started with 50 μL of S-2222 (50 μM or 100 μM f.c.) and the absorbance of each sample at 405 nm (at 25° C.) was measured in triplicates every 10 seconds for a period of 15 minutes using a microtiter plate reader (Tecan Sunrise).
# Trypsin activity was determined from the change in absorbance in the linear part of velocity graph. Ki was calculated according to Cheng and Prussof (Biochem Pharmacol, 1973) where Ki is, IC50/(1+S/Km). The Km for the substrate was determined under test conditions with at least 6 substrate concentrations varying around Km and calculated with the non-linear regression program Curve expert.
row,Ki,SMILES
1,217 µM,NC(C(=O)N1CCCC1C(=O)NCC1CCc2n[nH]cc2C1)C(c1ccccc1)c1ccccc1 (centres unmarked)

# Test system: not given
# Experiment: not given
# Conditions: not given
row,melting point,SMILES
1,127 to 130 °C,"CC(C)(C)OC(=O)N[C@H](C(=O)N1CCC[C@H]1C(=O)NC1CCc2n[nH]cc2C1)C(c1ccccc1)c1ccccc1 (stereo partly drawn) [Example 15, tert-Butyl (1S)-1-benzhydryl-2-oxo-2-{(2S)-2-[(4,5,6,7-tetrahydro-2H-indazol-5-ylamino)carbonyl]pyrrolidinyl}ethylcarbamate]"
2,116 to 119 °C,"CC(C)(C)OC(=O)N[C@H](Cc1ccc(Cl)c(Cl)c1)C(=O)N1CCC[C@H]1C(=O)NC1CCc2nc(N)sc2C1 (stereo partly drawn) [Example 34, tert-Butyl (1R)-2-((2S)-2-{[(2-amino-4,5,6,7-tetrahydro-1,3-benzothiazol-6-yl)amino]carbonyl}pyrrolidinyl)-1-(3,4-dichlorobenzyl)-2-oxoethylcarbamate]"
3,205 to 208 °C,Cl.Cl.Nc1ncc2c(n1)CCC(NC(=O)[C@@H]1CCCN1C(=O)[C@H](N)Cc1ccccc1)C2 (some centres unmarked)
4,100 to 103 °C,"O=C(NCC1CCc2n[nH]cc2C1)[C@@H]1CCCN1C(=O)[C@@H](CC1CCCCC1)NS(=O)(=O)Cc1ccccc1 (stereo partly drawn) [Example 58, (2S)-1-{(2R)-2-[(Benzylsulfonyl)amino]-3-cyclohexylpropanoyl}-N-(4,5,6,7-tetrahydro-2H-indazol-5-ylmethyl)-2-pyrrolidinecarboxamide]"
5,155 to 158 °C,Cl.Cl.Nc1nc2c(s1)CC(NC(=O)[C@@H]1CCCN1C(=O)[C@@H](N)C(c1ccccc1)c1ccccc1)CC2 (some centres unmarked)
6,166 to 168 °C,Cl.Cl.Nc1ncc2c(n1)CCC(CNC(=O)[C@@H]1CCCN1C(=O)[C@H](N)C(c1ccccc1)c1ccccc1)C2 (some centres unmarked)
7,119 to 122 °C,"Nc1nc2c(s1)CC(NC(=O)CNC(=O)[C@@H](Cc1ccccc1)NS(=O)(=O)Cc1ccccc1)CC2 (stereo partly drawn) [Example 31, (2R)-N-{2-[(2-Amino-4,5,6,7-tetrahydro-1,3-benzothiazol-6-yl)amino]-2-oxoethyl}-2-[(benzylsulfonyl)amino]3-phenylpropanamide]"
8,180 to 182 °C,Cl.Cl.Nc1nc2c(s1)CC(NC(=O)[C@@H]1CCCN1C(=O)[C@@H](CC1CCCCC1)NCC(=O)O)CC2 (some centres unmarked)
9,116 to 119 °C,"CC(C)(C)OC(=O)N[C@H](Cc1ccc(Cl)c(Cl)c1)C(=O)N1CCC[C@H]1C(=O)NC1CCc2n[nH]cc2C1 (stereo partly drawn) [Example 16, tert-Butyl (1R)-1-(3,4dichlorobenzyl)-2-oxo-2-{(2S)-2-[(4,5,6,7-tetrahydro-2H-indazol-5-ylamino)carbonyl]pyrrolidinyl}ethylcarbamate]"
10,125 to 128 °C,"Nc1nc2c(s1)CC(NC(=O)[C@@H]1CCCN1C(=O)CNC(c1ccccc1)(c1ccccc1)c1ccccc1)CC2 (stereo partly drawn) [Example 33, (2S)-N-(2-Amino-4,5,6,7-tetrahydro-1,3-benzothiazol-6-yl)-1-[2-(tritylamino)acetyl]-2-pyrrolidinecarboxamide]"
11,201 to 204 °C,Cl.Cl.Nc1ncc2c(n1)CCC(NC(=O)[C@@H]1CCCN1C(=O)[C@H](N)Cc1ccc(Cl)c(Cl)c1)C2 (some centres unmarked)
12,117 to 120 °C,"Nc1ncc2c(n1)CCC(NC(=O)[C@@H]1CCCN1C(=O)[C@@H](Cc1ccccc1)NS(=O)(=O)Cc1ccccc1)C2 (stereo partly drawn) [Example 6, (2S)-N-(2-Amino-5,6,7,8-tetrahydro-6-quinazolinyl)-1-{(2R)-2-[(benzylsulfonyl)amino]-3-phenylpropanoyl}-2-pyrrolidinecarboxamide]"
13,118 to 121 °C,"Nc1ncc2c(n1)CCC(CNC(=O)[C@@H]1CCCN1C(=O)[C@@H](CC1CCCCC1)NS(=O)(=O)Cc1ccccc1)C2 (stereo partly drawn) [Example 57, (2S)-N-[(2-Amino-5,6,7,8-tetrahydro-6-quinazolinyl)methyl]-1-{(2R)-2-[(benzylsulfonyl)amino]-3-cyclohexylpropanoyl}-2-pyrrolidinecarboxamide]"
14,106 to 109 °C,"O=C(NC1CCc2c[nH]cc2C1)[C@@H]1CCCN1C(=O)[C@@H](CC1CCCCC1)NS(=O)(=O)Cc1ccccc1 (stereo partly drawn) [Example 63, (2S)-1-{(2R)-2-[(Benzylsulfonyl)amino]-3-cyclohexylpropanoyl}-N-(4,5,6,7-tetrahydro-2H-isoindol-5-yl)-2-pyrrolidinecarboxamide]"
15,199 to 202 °C,Cl.Cl.N[C@H](Cc1ccc(Cl)c(Cl)c1)C(=O)N1CCC[C@H]1C(=O)NC1CCc2n[nH]cc2C1 (some centres unmarked)
16,110 to 113 °C,"CC(C)(C)OC(=O)N[C@H](Cc1ccc(Cl)c(Cl)c1)C(=O)N1CCC[C@H]1C(=O)NCC1CCc2nc(N)ncc2C1 (stereo partly drawn) [Example 61, tert-Butyl (1R)-2-[(2S)-2-({[(2-amino-5,6,7,8-tetrahydro-6-quinazolinyl)methyl]amino}carbonyl)pyrrolidinyl]1-(3,4dichlorobenzyl)-2-oxoethylcarbamate]"
